A value given as a limit tells only on which side of the number the result lay.

The melting point is the temperature of the solid-liquid transition. The compound `Cc1cccc(Cl)c1N1C(=O)CON(C)C1=S` yielded a melting point of 176 to 178 °C.

For `OC1CCc2cc(F)cc(F)c21` (stereo unspecified), the melting point was in the range of 102 to 103 °C.

`O=C(CSc1ncc(-c2ccccc2)cn1)NC1CCN(Cc2ccc(Cl)c(Cl)c2)CC1` returned a melting point of 157 °C.

Take `CCOC(=O)N1CCc2nnc(NN=C(C)C)cc2C1`: the melting point lay in the range of 171 to 174 °C.

In the case of `O=C(O)C(=O)c1ccc(OCCOc2cccc3ccccc23)cc1`, the melting point lay in the range of 124 to 125 °C.

For the compound `CS(=O)(=O)c1ccc(C(CC2CCOCC2)c2cnc(-c3ccccn3)[nH]2)cc1Cl` (stereo unspecified), the melting point was in the range of 106 to 109 °C.

For `CCCc1nc2c(N)nc(C)c(C)c2n1CC1(O)CCCCC1`, the melting point is 214 to 216 °C.

The compound `CC1=CC(C)(C)OC(c2nsc3ccc(-n4c(=O)cc(C(F)(F)F)n(C)c4=O)cc23)C1` (stereo unspecified) registered a melting point of 88 to 92 °C.

For `COC(=O)C1CN(Cc2cccnc2)C(=O)C(=C2SC=CS2)C1=O` (stereo unspecified), the melting point lay in the range of 111 to 114 °C.

Regarding `CCOC(=O)C1=C(C)NC(C)=C(C(=O)OCC)C1c1cccc2nonc12`, the melting point lay in the range of 153 to 155 °C.

As for `CCCCOC(=O)[C@H](Cc1ccc(O)cc1)NC(=O)C1(NC(=O)[C@@H](S)C(C)C)CCCC1`, the melting point lay in the range of 182 to 183 °C.

As to `COc1ccc(C2CCCC(=O)O2)cc1` (stereo unspecified), the melting point lay within 57.5 to 59.5 °C.

In the case of `CNc1nc(SC)ncc1C=O`, the melting point was 98 to 100 °C.

For the compound `OCc1nnc2n1-c1ccccc1C(c1ccccc1Cl)=NC2`, the melting point lay in the range of 196 to 197 °C.

`COc1cc(C)c(C(=O)c2c(OC)ncc(Cl)c2C)c(OC)c1OC`: the melting point lay within 92 to 94 °C.

On to `CCCc1cc(F)c2occ(C)c2c1O`, for which the melting point lay in the range of 53 to 54 °C.

For the compound `CCN(CC)CCN(CC)C(=O)c1ccc(Nc2ccnc3cc(Cl)ccc23)cc1`, the melting point was found to be 166 °C.

For the compound `Cc1cc(S)n2nc(C(=O)O)nc2n1`, the melting point is 215 to 217 °C.

Compound `CCN(CC)Cc1cc(Nc2ccnc3cc(Cl)ccc23)c2ccccc2c1O` yielded a melting point of 158 to 160 °C.

As for `CCOc1cc(NC(=O)NS(=O)(=O)c2ccc(C)cc2)cc(OCC)n1`, the melting point is above 270 °C.

`Nc1cc(Cl)c(Oc2ccc(S(=O)(=O)c3ccc(Cl)cc3)cc2)c(Cl)c1` gave a melting point of 186 to 187 °C.

As to `COc1cccc([C@]23CCN(C)C[C@@H]2CCC2(C3)OCCO2)c1` (relative stereo), the melting point fell in the range of 124 to 126 °C.

As for `COc1cc(C2C3=C(COC3=O)Nc3ccc4cn[nH]c4c32)cc(OC)c1OC` (stereo unspecified), the melting point lay within 278 to 279 °C.

Take `CCC(=O)c1ccc(=O)[nH]c1CC`: the melting point lay in the range of 138 to 140 °C.

Regarding `Cn1cccc1C1=C(Cl)C(=O)c2cccnc2C1=O`, the melting point was in the range of 168 to 169 °C.

With `NS(=O)(=O)c1cnc(-c2cn(-c3nc(-c4ccc(C(F)(F)F)cc4)cc(C(F)(F)F)n3)cn2)s1`, the melting point came to 264 °C.

Compound `CCCCCCCCCCCCS(=O)(=O)Nc1cc(C(=O)Nc2ccccc2)ccc1OC` returned a melting point of 156 to 157 °C.

For `C/C(=C\c1ccc(C(=O)Nc2nnn[nH]2)cc1)c1ccc2c(c1)C(C)(C)CCO2`, the melting point is above 250 °C.

Turning to `CC(C)(C)OC(=O)N1CCC(N2Cc3ccccc3NC2=NC#N)CC1`, the melting point was 249 to 250 °C.

The compound `O=c1[nH]cnc2cc[nH]c12` returned a melting point above 300 °C.

Turning to `CCCCCc1nc2cc(Cl)c(S(N)(=O)=O)cc2[nH]1`, the melting point is 183 to 185 °C.

As for `COc1ccccc1N1CCN(CCCNc2ccc(F)cc2)CC1`, the melting point was 79 to 80 °C.

As for `CCc1nc2c(N)nc3ccc(-c4ccccc4)cc3c2n1CC(C)C`, the melting point fell in the range of 233 to 235 °C.

With `Clc1ccc([C@@]2(Cn3ccnc3)OC[C@H](COc3ccc4c(c3)CCNC4)O2)c(Cl)c1` (racemic), the melting point lay in the range of 143 to 145 °C.

On to `N#Cc1ccc(-c2ccc(OCC(COc3ccccc3)N(O)C=O)cc2)cc1` (stereo unspecified), for which the melting point was 133 to 135 °C.

Take `Cn1c(=O)c(C#N)c(N2CCN(C(=O)c3cccs3)CC2)c2cccnc21`: the melting point came out at 266 °C.

Source of the values: a melting point compilation (Tetko et al.; mined from patent text by program, amines drawn as free bases though some values may be those of a salt).
